Experimental data taken from PMC10385824, “Antiproliferative and Tubulin-Destabilising Effects of 3-(Prop-1-en-2-yl)azetidin-2-Ones and Related Compounds in MCF-7 and MDA-MB-231 Breast Cancer Cells” (Pharmaceuticals, 2023).
Where two headings read alike, the source gives them in different places.

How the values were obtained:
[1] = test system: MCF-7 human breast cancer cells; test: cells
Method: (§1) All biochemical assays were performed in triplicate for the determination of mean values reported. The human breast carcinoma cell line MCF-7 was purchased from the European Collection of Animal Cell Cultures (ECACC) and was cultured in Eagle’s minimum essential medium with 10% fetal bovine serum, 2 mM L-glutamine and 100 μg/mL penicillin/streptomycin. The medium was supplemented with 1% non-essential amino acids. […] All cells were sub-cultured 3 times/week by trypsinisation.
(§2) Cells were seeded at a density of 5 × 10^3 cells/well (MCF-7) in triplicate in 96-well plates. […] Cell proliferation for MCF-7 and MDA-MB-231 cells was analysed using the Alamar Blue assay (Invitrogen Corp.). […] Experiments were performed in triplicate on at least three separate occasions.

[2] = test system: MDA-MB-231 human breast cancer cells; test: Alamar Blue cell viability (antiproliferative) assay; type: cell-based; settings: 72 h, eight concentrations 0.001-50 μM, mean ± SEM, read-out: Antiproliferative Activity IC50
[3] = test system: MCF-7 human breast cancer cells; settings: for antiproliferative activity in words / IC50: MCF-7; for IC50: read-out: Antiproliferative Activity IC50, 72 h, eight concentrations (0.001–50 mM [sic]), mean ± SEM, Table 5
Method: as §1, §2

[4] = test system: NCI 60 human cancer cell line panel; test: NCI 60 cell line screen (SRB), panel values; settings: Homo sapiens, 60 cell
[5] = test system: purified bovine brain tubulin; test: Tubulin polymerization assay (light scattering, BK006 kit); type: biochemical; settings: compound at 10 μM; for Fold Reduction in Vmax: relative to vehicle
Method: Tubulin polymerization was monitored using the BK006 kit obtained from Cytoskeleton Inc. (Denver, CO, USA). The values reported represent the average values determined from two independent assays. Purified bovine brain tubulin (>99%, 3 mg/mL) in buffer containing PIPES (80 mM, pH 6.9), EGTA (0.5 mM), MgCl2 (2 mM), GTP (1 mM) and glycerol (10%) was incubated at 37 °C in vehicle (1% DMSO or EtOH (v/v) in dH2O) or with compounds 9h, 9q, 9s, 10h, 10p, 10r, 11h, 11p, 11r, 17f (all at 10 µM concentration); CA-4 (10 μM) was used as control. In this assay, light scattering is related to the concentration of polymerised microtubules produced. Tubulin assembly was monitored turbidimetrically at 340 nm at 37 °C in a Spectramax 340 PC spectrophotometer (Molecular Devices, Sunnyvale, CA, USA).

MDA-MB-231/ATCC = test: NCI-60 SRB screen, breast cancer; type: cell-based, human; settings: Homo sapiens, MDA-MB-231, 48 h, read-out: Antiproliferative Activity IC50
[6] = MCF7, read-out: Antiproliferative Activity IC50, MCF-7, eight concentrations 0.001–50 μM, mean ± SEM, Table 3
[7] = MCF7, 72 h, read-out: Antiproliferative Activity IC50, MCF-7, 72 h, eight concentrations 1–50 μM, mean ± SEM, Table 2

C=CC[C@@H]1C(=O)N(c2cc(OC)c(OC)c(OC)c2)[C@H]1c1ccc(C)cc1 (relative stereo) [10g, 3-Allyl-4-p-tolyl-1-olyl-1-(3,4,5-trimethoxyphenyl)azetidin-2-one]
IC50 [1, 6]: 199 ± 30 nM | IC50 [2]: 377 ± 60 nM

C=C(C)C1C(=O)N(c2cc(OC)c(OC)c(OC)c2)C1c1ccc(Cl)cc1 (stereo not drawn) [9b, 4-(4-Chlorophenyl)-1-(3,4,5-trimethoxyphenyl)-3-(prop-1-en-2-yl)azetidine-2-one]
IC50 [1, 7]: 630 ± 70 nM | antiproliferative activity in words [3]: sub-micromolar | melting point: 137 to 138 °C

C=C(C)C1C(=O)N(c2cc(OC)c(OC)c(OC)c2)C1c1ccc(Br)cc1 (stereo not drawn) [9c, 4-(4-Bromophenyl)-1-(3,4,5-trimethoxyphenyl)-3-(prop-1-en-2-yl)azetidine-2-one]
antiproliferative activity in words [3]: sub-micromolar | melting point: 130 to 131 °C

C=C(C)C1C(=O)N(c2cc(OC)c(OC)c(OC)c2)C1c1ccc(N(C)C)cc1 (stereo not drawn) [9e, 4-(4-Dimethylaminophenyl)-1-(3,4,5-trimethoxyphenyl)-3-(prop-1-en-2-yl)azetidine-2-one]
IC50 [1, 7]: 5950 ± 920 nM | antiproliferative activity in words [3]: sub-micromolar

C=C(C)C1C(=O)N(c2cc(OC)c(OC)c(OC)c2)C1c1ccc(C)cc1 (stereo not drawn) [9g, 4-p-Tolyl-1-(3,4,5-trimethoxyphenyl)-3-(prop-1-en-2-yl)azetidine-2-one]
IC50 [2]: 246 ± 17 nM | antiproliferative activity in words [3]: sub-micromolar | melting point: 102 to 104 °C

C=C(C)C1C(=O)N(c2cc(OC)c(OC)c(OC)c2)C1c1ccc(OCC)cc1 (stereo not drawn) [9i, 4-(4-Ethoxyphenyl)-1-(3,4,5-trimethoxyphenyl)-3-(prop-1-en-2-yl)azetidin-2-one]
IC50 ([1]; MCF7, MCF-7): 81 nM | IC50 [2]: 171 ± 11 nM | melting point: 100 to 102 °C

C=C(C)C1C(=O)N(c2cc(OC)c(OC)c(OC)c2)C1c1ccc2ccccc2c1 (stereo not drawn) [9n, 4-Naphthalen-2-yl-1-(3,4,5-trimethoxyphenyl)-3-(prop-1-en-2-yl)azetidin-2-one]
IC50 [1, 7]: 78100 ± 5470 nM | IC50 ([1]; MCF7, MCF-7): 139 nM | IC50 [2]: 529 ± 80 nM | fold more potent than the 1-naphthyl compound 9m ([3]; MCF-7 IC50 ratio): 58 fold | melting point: 123 to 124 °C

C=C(C)C1C(=O)N(c2cc(OC)c(OC)c(OC)c2)C1c1ccc(SC)cc1 (stereo not drawn) [9o, 4-(4-(Methylthio)phenyl)-3-(prop-1-en-2-yl)-1-(3,4,5-trimethoxyphenyl)azetidin-2-one]
IC50 [1, 7]: 272000 ± 26400 nM | antiproliferative activity in words [3]: sub-micromolar | melting point: 99 to 100 °C

C=C(C)C1C(=O)N(c2ccc(SC)cc2)C1c1cc(OC)c(OC)c(OC)c1 (stereo not drawn) [9t, 1-(4-(Methylthio)phenyl)-3-(prop-1-en-2-yl)-4-(3,4,5-trimethoxyphenyl)azetidin-2-one]
IC50 [1, 7]: 131 ± 40 nM | antiproliferative activity in words [3]: minimal | melting point: 113 to 115 °C

C=C(C)C1C(=O)N(c2ccc(OCC)cc2)C1c1cc(OC)c(OC)c(OC)c1 (stereo not drawn) [9u, 1-(4-Ethoxyphenyl)-3-(prop-1-en-2-yl)-4-(3,4,5-trimethoxyphenyl)azetidin-2-one]
antiproliferative activity in words [3]: minimal | melting point: 106 to 108 °C

C=C(C)C1C(=O)N(c2ccc(OC)cc2)C1c1cc(OC)c(OC)c(OC)c1 (stereo not drawn) [9v, 1-(4-Methoxyphenyl)-3-(prop-1-en-2-yl)-4-(3,4,5-trimethoxyphenyl)azetidin-2-one]
IC50 [1, 7]: 1160 ± 120 nM | antiproliferative activity in words [3]: minimal | melting point: 128 to 130 °C

C=CCC1C(=O)N(c2cc(OC)c(OC)c(OC)c2)C1c1ccc(OCc2ccccc2)cc1 (stereo not drawn) [10l, 3-Allyl-4-(4-benzyloxyphenyl)-1-(3,4,5-trimethoxyphenyl)azetidin-2-one]
IC50 [1, 6]: 7390 ± 670 nM | IC50 [2]: 486 ± 60 nM | melting point: 140 to 141 °C

C=CCC1C(=O)N(c2cc(OC)c(OC)c(OC)c2)C1c1cccc2ccccc12 (stereo not drawn) [10m, 3-Allyl-4-naphthalen-1-yl-1-(3,4,5-trimethoxyphenyl)azetidin-2-one]
IC50 [1, 6]: 210 ± 26 nM | IC50 [2]: 656 ± 130 nM | melting point: 139 to 140 °C

C=CC=CC1C(=O)N(c2cc(OC)c(OC)c(OC)c2)C1c1ccc(C)cc1 (stereo not drawn) [11g, 3-(Buta-1,3-dienyl)-4-p-tolyl-1-(3,4,5-trimethoxyphenyl)azetidin-2-one]
IC50 ([1]; MCF7, read-out: Antiproliferative Activity IC50, MCF-7, eight concentrations 0.001–50 μM, mean ± SEM, Table 4): 200 ± 40 nM | IC50 [2]: 160 ± 14 nM | melting point: 88 to 89 °C

C=C/C=C/C1C(=O)N(c2cc(OC)c(OC)c(OC)c2)C1c1ccc(OC)c(O)c1 (stereo not drawn) [11p, (E)-3-(Buta-1,3-dien-1-yl)-4-(3-hydroxy-4-methoxyphenyl)-1-(3,4,5-trimethoxyphenyl)azetidin-2-one]
GI50 ([4]; read-out: Mean GI50, mean over all NCI 60 cell lines): 288 nM | CC50 ([4]; read-out: Mean LC50): 91.2 µM | IC (TGI (total growth inhibition)) ([4]; read-out: Mean TGI): 31.6 µM | Fold Reduction in Vmax [5]: 1.1 | IC50 (MDA-MB-231/ATCC): 113 nM | IC50 ([1]; MCF7, read-out: Antiproliferative Activity IC50): 61 ± 8 nM

CCOC(=O)CC1C(=O)N(c2cc(OC)c(OC)c(OC)c2)C1c1ccc(OC)cc1 (stereo not drawn) [17f, Ethyl-2-(1-(3,4,5-trimethoxyphenyl)-2-(4-methoxyphenyl)-4-oxoazetidin-3-yl)acetate]
Vmax ([5]; 37 °C, 340 nm): 0.0038 mOD/min | Fold Reduction in Vmax [5]: 2.2 | IC50 ([1]; MCF7, 72 h, read-out: Antiproliferative Activity IC50, MCF-7, 72 h, eight concentrations (0.001–50 mM [sic]), mean ± SEM, Table 5): 35 ± 3 nM

COC(=O)C1=C(C(=O)OC)C(C2C(=O)N(c3cc(OC)c(OC)c(OC)c3)C2c2cccc3ccccc23)CC=C1 (stereo not drawn) [22a, Dimethyl-6-(1-(3,4,5-trimethoxyphenyl)-2-(naphthalen-1-yl)-4-oxoazetidin-3-yl)cyclohexa-1,3-diene-1,2-dicarboxylate]
IC50 [3]: 142 ± 20.3 µM

COC(=O)C1=C(C(=O)OC)C(C2C(=O)N(c3cc(OC)c(OC)c(OC)c3)C2c2cccc3ccccc23)CC=C1 (stereo not drawn) [22b, Dimethyl-6-(1-(3,4,5-trimethoxyphenyl)-2-(naphthalen-1-yl)-4-oxoazetidin-3-yl)cyclohexa-1,3-diene-1,2-dicarboxylate]
IC50 [3]: 9.69 ± 1.02 µM
